Entries after “also recorded” stand apart in the source; their conditions may differ.

Data on one sequence can be found in US11850263B2, “Nanoparticles conjugated with vasoactive intestinal peptide antagonists” (Emory University, priority 2017, dated 2023).

The test system of assay [1] is T-cells from the anergic lymphoma patient. The assay is described as follows: Culture of sorted lymphoma patient T-cells with anti-CD3/anti-CD28 beads (Ki67, PD-1 by flow cytometry). The format is cell-based, human. The source says:
Using high-speed cell sorting subsets of T-cells were isolated defined by their levels of CD27 and CD28 expression from the patient with relapsed lymphoma and a healthy control. CD3 positive T-cells with each of the four phenotypes defined by CD27 and CD28 expression were sorted and cultured in vitro in the presence of anti-CD^3/anti-CD28 beads. Total T-cells from healthy donors had 100% expression of the Ki67 proliferation marker following four days of culture. However, the corresponding total T-cell population from the patient with anergic T-cells following treatment for lymphoma had only 90% of T-cells expressing the Ki67 marker.
Following the daily addition of 3 uM VIPhyb to these cultures, the proportion of Ki67 positive T-cells from the anergic lymphoma patient was increased to 100%. […] In contrast, the T-cell subsets lacking expression of either CD27 or CD28 or both markers had impaired proliferated response when incubated with the anti-CD3/CD28 beads.
Addition of the antagonist VIPhyb augmented T-cell proliferation in the subsets lacking either CD27 or CD28.
A general note: Flow cytometry measures light scatter and fluorescence of single cells or particles in a stream.

Assay [2] deals with luciferase B6 splenic T cells. Put plainly: One-way mixed lymphocyte reaction (MLR), luciferase B6 splenic T cells with irradiated FVB splenocytes. The format is cell-based, mouse. Here is the method: Proliferation of luciferase B6 splenic T cells cultured for 3 days in MLR with irradiated FVB splenocytes, with daily addition of VIP and/or VIPhyb to achieve the concentrations shown (0-10 mmol/L).
To explore the role of VIP signaling in allo-immune responses, one-way mixed lymphocyte reactions (MLR) were performed containing VIP and/or the antagonistic VIPhyb peptide. Addition of VIP decreased Luciferase T-cell proliferation in a dose-dependent manner, while adding VIPhyb increased T-cell proliferation.

Assay [3] deals with senescent T cells from a patient with lymphoma. Put plainly: 10 day in vitro culture of senescent lymphoma patient T cells with anti-CD3/CD28 beads, flow cytometric analysis. In kind it is cell-based, human. Here is the method:
Monocytes were depleted from the T cell sample, as monocytes are known to inhibit T cell expansion in cultures containing anti-CD3/CD28 beads. The effect of a range of idelalisib concentrations were compared alone and in combination with 3 uM VIP peptide antagonist (VIPhyb) or 1 ug/ml mast cell chymase, an enzyme that degrades endogenous VIP on T cell activation, differentiation and proliferation. Numbers of viable T cells were measured during a 10 day in vitro cultures as well as the T cell differentiation and activation profiles, focusing on the relative numbers of T cells with a senescent phenotype in which co-stimulatory receptors CD27 and CD28 are both absent (CD27−CD28−), to an activated phenotype, in which either CD27, CD28, or both co-stimulatory receptors are present (CD27+CD28+).
Aliquots of frozen patient apheresis products or PBMC from ficolled whole blood were rapidly thawed and rested overnight in complete RPMI 1640 supplemented with 10% fetal bovine serum, 100 U/mL penicillin, 100 μg/mL streptomycin, and 50 μM 2-mercaptoethanol (complete media). The following day, red blood cells were removed from apheresis products by ficoll gradient. The leukocytes were then enriched for T cells using an EasySep human T cell enrichment kit according to manufacturer's instructions. Cells were plated in 200 μL of complete media in each well of a 96 well flat-bottom plate. Compounds were added at the indicated concentrations, and the DMSO concentration was normalized to 0.1% for all wells. Anti-CD3/CD28 beads were added at a 1:1 bead:cell ratio. On day 7 post-stimulation, cells from each treatment were transferred to new media. Fresh compounds and beads were then added, and the cells were cultured for an additional 3 days. On day 10 post-initial stimulation, the beads were removed, and the cells were stained for flow cytometric analysis.
Cells were washed twice in PBS. The cells were also stained using a fixable viability dye. Surface markers were then stained by adding fluorochrome-conjugated antibodies to CD3, CD4, CD8, CD27, CD28, CD45RA, CD45RO, PD-1, and CCR7. To assess proliferation, half the cells were evaluated for expression of Ki67. Ki67 staining was performed using a FoxP3 intracellular staining kit. Just prior to running samples, Accucheck™ counting beads were added to each tube. Samples were acquired on a BD FACS Aria, and analysis was performed using FlowJo™ software. Viable cells were used in the analysis. The absolute numbers of cells was calculated for each population according to instructions provided by the manufacturer of the Accucheck™ counting beads.

For assay [4], the system named is DLBCL patient T cells. The assay is described as follows: DLBCL patient T cell expansion for 14 days with CD3/CD28 beads and IL-2. In kind it is cell-based, human.
Assay [5] has as its system Bcl-2. The assay is described as follows: Bcl-2 blot of protein lysates from patient T cell expansion cultures. Conditions: lysates on days 7 and 14; actin loading control. The format is cell-based, human. How it is done:
Protein lysates from patient T cell expansion cultures were prepared on days 7 and 14. Samples were run on an SDS-PAGE gel prior to transfer to a nitrocellulose membrane. The membrane was then probed for the pro-survival Bcl-2 protein, stripped, and then re-probed for actin as a loading control.

The subject of assay [6] is E.G7-OVA cells. Put plainly: E.G7-OVA lymphoma model, adoptive transfer of T cells expanded with the compounds. In kind it is in vivo, Mice. Conditions: OVA-expressing lymphoma model; T cells expanded 3 days with CD3/CD28 beads and IL-2, injected intravenously on day 7 of tumor growth. Here is the method:
Mice were injected subcutaneously with 5×10^5 E.G7-OVA cells that were allowed to grow for 7 days until a palpable tumor formed. During this period, OT-I, OT-II, and B6 T cells were expanded with CD3/CD28 beads in the presence of IL-2 and the indicated compounds for 3 days. On day 7 of tumor growth, mice were injected intravenously with a combination of expanded OT-I, OT-II, and B6 T cells (2×10^6 OT-I, 1×10^6 OT-II, and 2×10^6 B6 cells) or 2×10^6 B6 T cells as a control. Mice were then monitored for tumor growth that was calculated as (L×W^2)/2. FIG. 5B is a tumor growth curve showing the rate of growth among groups over time. Expansion of mouse T cells in the presence of Idelalisib, VIPhyb, or a combination of both enhances their therapeutic efficacy in an OVA-expressing lymphoma model.

The test system of assay [7] is luciferase-expressing splenic T cells from B6 Luciferase mice. Put plainly: Bioluminescent MLR, B6 Luciferase splenic T cells with irradiated FVB splenic T cells (VIP, VIPhyb, VIPhyb-NP). In kind it is cell-based, mouse. The source says:
Splenocytes were extracted from WT and VIP-KO mice treated with B16-F0 and B16-F10 melanoma, and analyzed with flow cytometry for Granzyme B (GrZ B) and CD8 expression. VIPhyb was conjugated to a biocompatible, non-toxic 30 nm NP through emulsion polymerization and tested for purity and stability. A mixed lymphocyte reaction (MLR) using luciferase-expressing splenic T cells from B6 Luciferase mice were co-cultured with irradiated splenic T cells from FVB mice. VIP, VIPhyb, and VIPhyb-NP at concentrations of 0 ug/mL to 975 ug/mL were added to the MLR on 3 consecutive days and their effect on T cell proliferation assessed with bioluminescent imaging.

Assay [8] concerns effector/memory CD8+ T cells and mature NK cells. Conditions: mouse leukemia models; cited from earlier work.
In assay [9] the test system is PD-1 and PD-L1. Conditions: activated T cells and dendritic cells, respectively; cited from earlier work.

“KPRRPYTDNYTRLRKQMAVKKYLNSILN [VIPhyb, peptide antagonist of VIP]”: the “levels of PD-1 expression” value in assay [1] (3 uM VIPhyb, flow cytometry, compared with control cultures without VIP antagonist) is listed as “decreased”. Further, in [1] (addition of VIPhyb, anti-CD3/CD28 beads), the “T-cell proliferation in the subsets lacking either CD27 or CD28” value is “augmented”. Moreover, the “proportion of Ki67 positive T-cells” value in assay [1] (daily addition of 3 uM VIPhyb, total T-cells of anergic lymphoma patient, anti-CD3/anti-CD28 beads, four days of culture, 90% without VIPhyb) is 100%. Further, the “T-cell proliferation in MLR” value in assay [2] (3 days, daily addition of VIP and/or VIPhyb, 0-10 mmol/L [sic]) was “increased; also recorded: augmented”. Further, the “effect on VIP suppression of T-cell proliferation” value in [2] (VIP plus VIPhyb in MLR) is recorded as “reversed the suppressive effect of VIP; also recorded: mitigated the inhibitory effect”. Further, the “fraction of senescent T cells that lacked both CD27 and CD28” value in assay [3] (3 uM VIPhyb, control 55.2%) was 35.7%. Moreover, in [3] (10-day cultures), the “numbers of effector memory T cells (Tem)” value is “increased”. The “in vitro expansion of senescent T cells” value in assay [3] (as single agent or in combination) was “significantly expanded”. For the same sequence, in assay [4], the “frequency of CD27+CD28+ cells” value is on record as “increases” and the “frequency of CD27−CD28− cells” value is recorded as “decreasing”. Moreover, the “expression of Bcl-2 in lymphoma patient T cells” value in assay [5] is “increased”. In addition, the “therapeutic efficacy of mouse T cells expanded in presence of the compounds” value in assay [6] was “enhances”. In addition, in assay [7] (T cell proliferation in MLR), the “concentration of peak efficacy” value stood at 300 µg/mL. In assay [7] (added on 3 consecutive days, 0 ug/mL to 975 ug/mL), the “effect on inhibitory effects of VIP on T cell proliferation in vitro” value is “counteracted the inhibitory effects of VIP”. Further, in assay [8], the “number of effector/memory CD8+ T cells and mature NK cells” value was “increases”. Moreover, the “expression of PD-1 and PD-L1” value in assay [9] is reported as “down regulates”.
